{"source": "PubChem BioAssay AID1963862", "about": "(Molecular Pharmacology Branch, DTP, NCI, 2024)", "test_system": "KRAS patient-derived spheroids with HUVEC/MSC, viability", "assay": "Anticancer human tumor 941728-121-R-J1-PDC patient-derived lung adenocarcinoma cell line growth inhibition [KRAS2]", "details": "for IC50: curve of first compound; for viability, T/C: stronger effect = lower value", "outline": "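KRAS-mutant tumor cells were grown as spheroids with HUVEC endothelial cells and human MSCs as stroma. Targeted agents were tested alone and with KRAS pathway inhibitors. Doses started at or near clinical Cmax, or 10 microM, descending half-log.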", "data": [{"molecule": "CC(=O)Nc1cccc(-n2c(=O)n(C3CC3)c(=O)c3c(Nc4ccc(I)cc4F)n(C)c(=O)c(C)c32)c1", "note": "+ CNCc1ccccc1-c1csc(C(C)Nc2nc(C)nc3cc(OC)c(OC)cc23)c1;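 further: spheroids exposed to agents for seven days before readout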", "values": [{"measurement": "IC50", "setting": "second compound 0.1 µM", "result": 0.119, "unit": "nM"}, {"measurement": "IC50", "setting": "second compound 0.316 µM", "result": "< 0.1", "unit": "nM"}, {"measurement": "IC50", "setting": "second compound 1 µM", "result": "< 0.1", "unit": "nM"}, {"measurement": "IC50", "setting": "second compound 3.16 µM", "result": "< 0.1", "unit": "nM"}, {"measurement": "IC50", "setting": "second compound 10 µM", "result": "< 0.1", "unit": "nM"}, {"measurement": "viability, T/C", "setting": "second compound 0.1 µM, first compound 0.0001 µM", "result": 51.3, "unit": "%"}, {"measurement": "viability, T/C", "setting": "second compound 0.1 µM, first compound 0.000316 µM", "result": 46.8, "unit": "%"}, {"measurement": "viability, T/C", "setting": "second compound 0.1 µM, first compound 0.001 µM", "result": 38.1, "unit": "%"}, {"measurement": "viability, T/C", "setting": "second compound 0.1 µM, first compound 0.00316 µM", "result": 37.7, "unit": "%"}, {"measurement": "viability, T/C", "setting": "second compound 0.1 µM, first compound 0.01 µM", "result": 35.7, "unit": "%"}, {"measurement": "viability, T/C", "setting": "second compound 0.1 µM, first compound 0.0316 µM", "result": 27.9, "unit": "%"}, {"measurement": "viability, T/C", "setting": "second compound 0.316 µM, first compound 0.0001 µM", "result": 44.4, "unit": "%"}, {"measurement": "viability, T/C", "setting": "second compound 0.316 µM, first compound 0.000316 µM", "result": 44.1, "unit": "%"}, {"measurement": "viability, T/C", "setting": "second compound 0.316 µM, first compound 0.001 µM", "result": 34.2, "unit": "%"}, {"measurement": "viability, T/C", "setting": "second compound 0.316 µM, first compound 0.00316 µM", "result": 31.8, "unit": "%"}, {"measurement": "viability, T/C", "setting": "second compound 0.316 µM, first compound 0.01 µM", "result": 30.5, "unit": "%"}, {"measurement": "viability, T/C", "setting": "second compound 0.316 µM, first compound 0.0316 µM", "result": 21.9, "unit": "%"}, {"measurement": "viability, T/C", "setting": "second compound 1 µM, first compound 0.0001 µM", "result": 35.3, "unit": "%"}, {"measurement": "viability, T/C", "setting": "second compound 1 µM, first compound 0.000316 µM", "result": 33, "unit": "%"}, {"measurement": "viability, T/C", "setting": "second compound 1 µM, first compound 0.001 µM", "result": 26.8, "unit": "%"}, {"measurement": "viability, T/C", "setting": "second compound 1 µM, first compound 0.00316 µM", "result": 23, "unit": "%"}, {"measurement": "viability, T/C", "setting": "second compound 1 µM, first compound 0.01 µM", "result": 14, "unit": "%"}, {"measurement": "viability, T/C", "setting": "second compound 1 µM, first compound 0.0316 µM", "result": 7.52, "unit": "%"}, {"measurement": "viability, T/C", "setting": "second compound 3.16 µM, first compound 0.0001 µM", "result": 0.3, "unit": "%"}, {"measurement": "viability, T/C", "setting": "second compound 3.16 µM, first compound 0.000316 µM", "result": 0.14, "unit": "%"}, {"measurement": "viability, T/C", "setting": "second compound 3.16 µM, first compound 0.001 µM", "result": 0.76, "unit": "%"}, {"measurement": "viability, T/C", "setting": "second compound 3.16 µM, first compound 0.00316 µM", "result": 0.17, "unit": "%"}, {"measurement": "viability, T/C", "setting": "second compound 3.16 µM, first compound 0.01 µM", "result": 0.16, "unit": "%"}, {"measurement": "viability, T/C", "setting": "second compound 3.16 µM, first compound 0.0316 µM", "result": 0.25, "unit": "%"}, {"measurement": "viability, T/C", "setting": "second compound 10 µM, first compound 0.0001 µM", "result": 0.16, "unit": "%"}, {"measurement": "viability, T/C", "setting": "second compound 10 µM, first compound 0.000316 µM", "result": 0.16, "unit": "%"}, {"measurement": "viability, T/C", "setting": "second compound 10 µM, first compound 0.001 µM", "result": 0.17, "unit": "%"}, {"measurement": "viability, T/C", "setting": "second compound 10 µM, first compound 0.00316 µM", "result": 0.15, "unit": "%"}, {"measurement": "viability, T/C", "setting": "second compound 10 µM, first compound 0.01 µM", "result": 0.14, "unit": "%"}, {"measurement": "viability, T/C", "setting": "second compound 10 µM, first compound 0.0316 µM", "result": 0.26, "unit": "%"}]}]}
